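Growth conditions: 96-well plates. Treatment: test compound, 48 hours, 5 concentrations. Analysis: linear interpolation between bracketing concentrations; unreached endpoints set to highest concentration. At the GI50, growth is halved.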 The source made the active and inactive calls. Cut-off read from the data, not from the text of the source: active = GI50 up to about 1.1 µM and inactive = higher.
Experiments:
Experiment in all cases: inhibition of tumour cell growth, NCI panel, 48 h
786-0 = tested on: 786-0
A498 = tested on: A498
A549 = tested on: A549
ACHN = tested on: ACHN
BT-549 = tested on: BT-549
CAKI-1 = tested on: CAKI-1
CCRF-CEM = tested on: CCRF-CEM
COLO 205 = tested on: COLO 205
DU-145 = tested on: DU-145
EKVX = tested on: EKVX
HCC 2998 = tested on: HCC 2998
HCT-116 = tested on: HCT-116
HCT-15 = tested on: HCT-15
HL-60 = tested on: HL-60
HOP-62 = tested on: HOP-62
HT-29 = tested on: HT-29
Hs-578T = tested on: Hs-578T
IGROV-1 = tested on: IGROV-1
K562 = tested on: K562
KM12 = tested on: KM12
LOX IMVI = tested on: LOX IMVI
M14 = tested on: M14
MCF7 = tested on: MCF7
MDA-MB-231 = tested on: MDA-MB-231
MDA-MB-435 = tested on: MDA-MB-435
MDA-N = tested on: MDA-N
MOLT-4 = tested on: MOLT-4
Malme-3M = tested on: Malme-3M
NCI-H226 = tested on: NCI-H226
NCI-H23 = tested on: NCI-H23
NCI-H460 = tested on: NCI-H460
NCI-H522 = tested on: NCI-H522
NCI/ADR-RES = tested on: NCI/ADR-RES
OVCAR-3 = tested on: OVCAR-3
OVCAR-4 = tested on: OVCAR-4
OVCAR-5 = tested on: OVCAR-5
OVCAR-8 = tested on: OVCAR-8
PC-3 = tested on: PC-3
RPMI-8226 = tested on: RPMI-8226
RXF 393 = tested on: RXF 393
SF-268 = tested on: SF-268
SF-295 = tested on: SF-295
SF-539 = tested on: SF-539
SK-MEL-28 = tested on: SK-MEL-28
SK-MEL-2 = tested on: SK-MEL-2
SK-MEL-5 = tested on: SK-MEL-5
SK-OV-3 = tested on: SK-OV-3
SN12C = tested on: SN12C
SNB-19 = tested on: SNB-19
SNB-75 = tested on: SNB-75
SW-620 = tested on: SW-620
T47D = tested on: T47D
TK-10 = tested on: TK-10
U-251 = tested on: U-251
UACC-257 = tested on: UACC-257
UACC-62 = tested on: UACC-62
UO-31 = tested on: UO-31
HOP-92 = tested on: HOP-92

Q: For `NC(=O)Nc1n[nH]c(-c2ccccc2)n1`, which GI50 (786-0) is on record?
A: > 100 µM (inactive)

Q: And the GI50 (A498)?
A: > 100 µM (inactive)

Q: What about the GI50 (A549) of the same molecule?
A: > 100 µM (inactive)

Q: And the GI50 (ACHN)?
A: > 100 µM (inactive)

Q: And the GI50 (BT-549)?
A: > 100 µM (inactive)

Q: What about the GI50 (CAKI-1) of the same molecule?
A: > 100 µM (inactive)

Q: What about the GI50 (CCRF-CEM) of the same molecule?
A: > 100 µM (inactive)

Q: What about the GI50 (COLO 205) of the same molecule?
A: > 100 µM (inactive)

Q: What about the GI50 (DU-145) of the same molecule?
A: > 100 µM (inactive)

Q: And the GI50 (EKVX)?
A: > 100 µM (inactive)

Q: And the GI50 (HCC 2998)?
A: > 100 µM (inactive)

Q: And the GI50 (HCT-116)?
A: > 100 µM (inactive)

Q: And the GI50 (HCT-15)?
A: > 100 µM

Q: What about the GI50 (HL-60) of the same molecule?
A: > 100 µM (inactive)

Q: And the GI50 (HOP-62)?
A: 54.1 µM (inactive)

Q: What about the GI50 (HT-29) of the same molecule?
A: > 100 µM (inactive)

Q: What about the GI50 (Hs-578T) of the same molecule?
A: > 100 µM (inactive)

Q: And the GI50 (IGROV-1)?
A: > 100 µM (inactive)

Q: And the GI50 (K562)?
A: > 100 µM (inactive)

Q: And the GI50 (KM12)?
A: > 100 µM (inactive)

Q: And the GI50 (LOX IMVI)?
A: > 100 µM (inactive)

Q: And the GI50 (M14)?
A: > 100 µM (inactive)

Q: And the GI50 (MCF7)?
A: > 100 µM (inactive)

Q: What about the GI50 (MDA-MB-231) of the same molecule?
A: > 100 µM (inactive)

Q: What about the GI50 (MDA-MB-435) of the same molecule?
A: > 100 µM (inactive)

Q: What about the GI50 (MDA-N) of the same molecule?
A: > 100 µM (inactive)

Q: And the GI50 (MOLT-4)?
A: > 100 µM (inactive)

Q: What about the GI50 (Malme-3M) of the same molecule?
A: > 100 µM (inactive)

Q: What about the GI50 (NCI-H226) of the same molecule?
A: > 100 µM (inactive)

Q: And the GI50 (NCI-H23)?
A: > 100 µM (inactive)

Q: And the GI50 (NCI-H460)?
A: > 100 µM (inactive)

Q: What about the GI50 (NCI-H522) of the same molecule?
A: > 100 µM (inactive)

Q: What about the GI50 (NCI/ADR-RES) of the same molecule?
A: > 100 µM (inactive)

Q: What about the GI50 (OVCAR-3) of the same molecule?
A: > 100 µM (inactive)

Q: And the GI50 (OVCAR-4)?
A: > 100 µM (inactive)

Q: What about the GI50 (OVCAR-5) of the same molecule?
A: > 100 µM (inactive)

Q: And the GI50 (OVCAR-8)?
A: > 100 µM (inactive)

Q: And the GI50 (PC-3)?
A: > 100 µM (inactive)

Q: What about the GI50 (RPMI-8226) of the same molecule?
A: > 100 µM (inactive)

Q: What about the GI50 (RXF 393) of the same molecule?
A: > 100 µM (inactive)

Q: And the GI50 (SF-268)?
A: > 100 µM (inactive)

Q: And the GI50 (SF-295)?
A: 0.706 µM (active)

Q: And the GI50 (SF-539)?
A: > 100 µM (inactive)

Q: What about the GI50 (SK-MEL-28) of the same molecule?
A: > 100 µM (inactive)

Q: And the GI50 (SK-MEL-2)?
A: > 100 µM (inactive)

Q: And the GI50 (SK-MEL-5)?
A: > 100 µM (inactive)

Q: And the GI50 (SK-OV-3)?
A: 1.79 µM (inactive)

Q: What about the GI50 (SN12C) of the same molecule?
A: > 100 µM (inactive)

Q: What about the GI50 (SNB-19) of the same molecule?
A: > 100 µM (inactive)

Q: And the GI50 (SNB-75)?
A: > 100 µM (inactive)

Q: And the GI50 (SW-620)?
A: > 100 µM (inactive)

Q: And the GI50 (T47D)?
A: > 100 µM (inactive)

Q: What about the GI50 (TK-10) of the same molecule?
A: > 100 µM (inactive)

Q: What about the GI50 (U-251) of the same molecule?
A: > 100 µM (inactive)

Q: And the GI50 (UACC-257)?
A: > 100 µM (inactive)

Q: What about the GI50 (UACC-62) of the same molecule?
A: > 100 µM (inactive)

Q: What about the GI50 (UO-31) of the same molecule?
A: > 100 µM (inactive)

Q: Which GI50 (786-0) does the source give for `CCCCCCCCCCCCCCCCCCNc1nc(=O)n(C2CC(O)C(COP(=O)(O)OCC(COP(=O)(O)OC3C(CO)OC(n4ccc(N)nc4=O)C3O)OCCCCCCCCCCCCCCCCCC)O2)cc1F` (stereo not given) here?
A: 14.8 µM (inactive)

Q: And the GI50 (A498)?
A: 36.7 µM (inactive)

Q: And the GI50 (A549)?
A: 14.5 µM (inactive)

Q: What about the GI50 (ACHN) of the same molecule?
A: 23.3 µM (inactive)

Q: What about the GI50 (BT-549) of the same molecule?
A: 56.4 µM (inactive)

Q: What about the GI50 (CAKI-1) of the same molecule?
A: 46.3 µM (inactive)

Q: What about the GI50 (CCRF-CEM) of the same molecule?
A: 0.402 µM (active)

Q: And the GI50 (COLO 205)?
A: 16.7 µM (inactive)

Q: And the GI50 (DU-145)?
A: 34.8 µM (inactive)

Q: What about the GI50 (EKVX) of the same molecule?
A: > 100 µM (inactive)

Q: What about the GI50 (HCC 2998) of the same molecule?
A: 14.1 µM (inactive)

Q: What about the GI50 (HCT-116) of the same molecule?
A: 27.5 µM (inactive)

Q: What about the GI50 (HCT-15) of the same molecule?
A: 34 µM

Q: And the GI50 (HL-60)?
A: 8.36 µM (inactive)

Q: And the GI50 (HOP-62)?
A: 16.5 µM (inactive)

Q: What about the GI50 (HOP-92) of the same molecule?
A: > 100 µM (inactive)

Q: And the GI50 (HT-29)?
A: 79.1 µM (inactive)

Q: And the GI50 (Hs-578T)?
A: 78.5 µM (inactive)

Q: And the GI50 (IGROV-1)?
A: 46.8 µM (inactive)

Q: What about the GI50 (K562) of the same molecule?
A: 22.9 µM (inactive)

Q: And the GI50 (KM12)?
A: > 100 µM (inactive)

Q: And the GI50 (LOX IMVI)?
A: 16.7 µM (inactive)

Q: And the GI50 (M14)?
A: 31.7 µM (inactive)

Q: And the GI50 (MCF7)?
A: 8.71 µM (inactive)

Q: What about the GI50 (MDA-MB-231) of the same molecule?
A: > 100 µM (inactive)

Q: What about the GI50 (MDA-MB-435) of the same molecule?
A: > 100 µM (inactive)

Q: And the GI50 (MDA-N)?
A: > 100 µM (inactive)

Q: And the GI50 (MOLT-4)?
A: 0.675 µM (active)

Q: And the GI50 (Malme-3M)?
A: 41.4 µM (inactive)

Q: And the GI50 (NCI-H226)?
A: > 100 µM (inactive)

Q: What about the GI50 (NCI-H23) of the same molecule?
A: 32 µM (inactive)

Q: And the GI50 (NCI-H460)?
A: 9.2 µM (inactive)

Q: And the GI50 (NCI-H522)?
A: 11.9 µM (inactive)

Q: What about the GI50 (NCI/ADR-RES) of the same molecule?
A: > 100 µM (inactive)

Q: What about the GI50 (OVCAR-3) of the same molecule?
A: > 100 µM (inactive)

Q: And the GI50 (OVCAR-4)?
A: 87.9 µM (inactive)

Q: And the GI50 (OVCAR-5)?
A: 67.1 µM (inactive)

Q: What about the GI50 (OVCAR-8) of the same molecule?
A: 18.6 µM (inactive)

Q: What about the GI50 (PC-3) of the same molecule?
A: 13.2 µM (inactive)

Q: What about the GI50 (RPMI-8226) of the same molecule?
A: 11.8 µM (inactive)

Q: What about the GI50 (RXF 393) of the same molecule?
A: 14.5 µM (inactive)

Q: And the GI50 (SF-268)?
A: 91.6 µM (inactive)

Q: What about the GI50 (SF-295) of the same molecule?
A: > 100 µM (inactive)

Q: And the GI50 (SF-539)?
A: 17.4 µM (inactive)

Q: What about the GI50 (SK-MEL-28) of the same molecule?
A: 69.7 µM (inactive)

Q: And the GI50 (SK-MEL-2)?
A: > 100 µM (inactive)

Q: What about the GI50 (SK-MEL-5) of the same molecule?
A: > 100 µM (inactive)

Q: And the GI50 (SK-OV-3)?
A: 99.3 µM (inactive)

Q: What about the GI50 (SN12C) of the same molecule?
A: > 100 µM (inactive)

Q: And the GI50 (SNB-19)?
A: 14.9 µM (inactive)

Q: And the GI50 (SNB-75)?
A: 80.5 µM (inactive)

Q: What about the GI50 (SW-620) of the same molecule?
A: > 100 µM (inactive)

Q: And the GI50 (T47D)?
A: 80.9 µM (inactive)

Q: And the GI50 (TK-10)?
A: 33.1 µM (inactive)

Q: What about the GI50 (U-251) of the same molecule?
A: 13.3 µM (inactive)

Q: And the GI50 (UACC-257)?
A: 97.3 µM (inactive)

Q: And the GI50 (UACC-62)?
A: > 100 µM (inactive)

Q: And the GI50 (UO-31)?
A: 28.8 µM (inactive)
